Experimental data as given in patent US20090131468A1, “Bis-(Sulfonylamino) Derivatives in Therapy 065” (AstraZeneca AB, priority 2007, published 2009).

Each compound was assayed against T1, human mPGES-1 (Homo sapiens, UniProt O14684) (assay: Microsomal prostaglandin E synthase biochemical assay). Details: microsome preparation containing human mPGES-1; PGH2 10.8 μM, GSH 2.5 mM, pH 6.8; PGE2 quantified by HTRF; average of at least n=2.
T1 sequence (O14684 1-152): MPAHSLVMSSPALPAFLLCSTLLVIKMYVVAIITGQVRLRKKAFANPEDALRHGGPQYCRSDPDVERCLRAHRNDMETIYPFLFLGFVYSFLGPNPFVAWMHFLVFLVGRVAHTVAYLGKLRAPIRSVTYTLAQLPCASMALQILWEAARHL
Method: Compounds were tested as inhibitors of microsomal prostaglandin E synthase activity in microsomal prostaglandin E synthase assays and whole cell assays. These assays measure prostaglandin E2 (PGE2) synthesis which is taken as a measure of prostaglandin E synthase activity. Microsomal prostaglandin E synthase biochemical assays used microsomal prostaglandin E synthase-1 in microsomal preparations. The source of the microsomes can be for example interleukin-1β-stimulated human A549 cells (which express human mPGES-1) or Sf9 cells transfected with plasmids encoding human mPGES-1 cDNA.
A solution of test compound was added to a diluted microsome preparation containing human mPGES-1 and pre-incubated for 15 minutes in potassium phosphate buffer pH 6.8 with cofactor glutathione (GSH). Corresponding solutions without test compound were used as positive controls, and corresponding solutions without test compound and without microsomes were used as negative controls. The enzymatic reaction was then started by addition of the substrate PGH2 in an organic solution (dry acetonitrile).
The reaction was stopped after one minute by adding an acidic solution (pH 1.9) of ferric chloride and citrate (final concentrations 7 mM and 47 mM respectively), by which the PGH2 was sequestered (the PGH2 is reduced to mainly 12-hydroxy heptadecatrineoic acid (12-HHT) which is not detected by the subsequent PGE2 detection step). The resulting solution was then pH neutralized by addition of potassium phosphate buffer, prior to diluting an aliquot of the resulting solution in a weak potassium phosphate buffer (50 mM, pH 6.8) containing 0.2% BSA (w/v). […] The PGE2 formed was quantified by use of a commercial HTRF based kit (catalogue #62PG2PEC or #62P2APEC from Cisbio International). 100% activity was defined as the PGE2 production in positive controls subtracted by the PGE2 production in the negative controls. IC50 values were then determined using standard procedures.

Row | SMILES | IC50 [nM]
1 | NS(=O)(=O)c1ccccc1S(=O)(=O)NC(=O)c1ccc(-c2ccccc2)s1 [Example 35, 5-Phenyl-N-(2-sulfamoylphenyl)sulfonyl-thiophene-2-carboxamide] | 530
2 | CC(C)(O)C#Cc1ccc(C(=O)NS(=O)(=O)c2ccccc2S(N)(=O)=O)cc1 [Example 44, 4-(3-Hydroxy-3-methylbut-1-ynyl)-N-(2-sulfamoylphenylsulfonyl)benzamide] | 240
3 | Cc1cc(-c2cc3ccccc3o2)ccc1C(=O)NS(=O)(=O)c1ccccc1S(N)(=O)=O [Example 46, 4-(Benzofuran-2-yl)-2-methyl-N-(2-sulfamoylphenylsulfonyl)benzamide] | 46
4 | COc1c(-c2cc3ccccc3o2)ccc(C(=O)NS(=O)(=O)c2ccccc2S(N)(=O)=O)c1F [Example 87, 4-(Benzofuran-2-yl)-2-fluoro-3-methoxy-N-(2-sulfamoylphenylsulfonyl)benzamide] | 16
5 | NS(=O)(=O)c1ccccc1S(=O)(=O)NC(=O)c1ccc(-c2cc3ccccc3o2)cn1 [Example 1, 5-Benzofuran-2-yl-N-(2-sulfamoylphenyl)sulfonyl-pyridine-2-carboxamide] | 240
6 | NS(=O)(=O)c1ccccc1S(=O)(=O)NC(=O)c1ccc(C#CC2CCCC2)nc1 [Example 93, 6-(Cyclopentylethynyl)-N-(2-sulfamoylphenylsulfonyl)nicotinamide] | 58
7 | NS(=O)(=O)c1ccccc1S(=O)(=O)NC(=O)c1cccc(OC(F)F)c1 [Example 19, 3-(Difluoromethoxy)-N-(2-sulfamoylphenyl)sulfonyl-benzamide] | 8700
8 | CC(C)Oc1cc(C(=O)NS(=O)(=O)c2ccccc2S(N)(=O)=O)ccc1C#CC1CCCCC1 [Example 131, 4-(Cyclohexylethynyl)-3-isopropoxy-N-(2-sulfamoylphenylsulfonyl)benzamide] | 14
9 | CC(C)Oc1cc(C(=O)NS(=O)(=O)c2ccccc2S(N)(=O)=O)cnc1C#CC1CCCCC1 [Example 144, 6-(Cyclohexylethynyl)-5-isopropoxy-N-(2-sulfamoylphenylsulfonyl)nicotinamide] | 11
10 | CC(C)Oc1cc(C(=O)NS(=O)(=O)c2ccccc2S(N)(=O)=O)ccc1C#CC(C)(C)O [Example 129, 4-(3-Hydroxy-3-methylbut-1-ynyl)-3-isopropoxy-N-(2-sulfamoylphenylsulfonyl)-benzamide] | 7000
11 | COC(C)(C)c1cc2cc(C(=O)NS(=O)(=O)c3ccccc3S(N)(=O)=O)ccc2o1 [Example 125, 2-(2-Methoxypropan-2-yl)-N-(2-sulfamoylphenylsulfonyl)benzofuran-5-carboxamide] | 12000
12 | CC(C)(C)C#Cc1ccc(C(=O)NS(=O)(=O)c2ccccc2S(N)(=O)=O)c2ccccc12 [Example 61, 4-(3,3-Dimethylbut-1-ynyl)-N-(2-sulfamoylphenylsulfonyl)-1-naphthamide] | 99
13 | NS(=O)(=O)c1ccccc1S(=O)(=O)NC(=O)c1ccc2cc(-c3ccccc3)oc2c1 [Example 9, 2-Phenyl-N-(2-sulfamoylphenyl)sulfonyl-benzofuran-6-carboxamide] | 78
14 | NS(=O)(=O)c1ccccc1S(=O)(=O)NC(=O)c1cnc(C#CC2CCCC2)c(Cl)c1 [Example 148, 5-Chloro-6-(cyclopentylethynyl)-N-(2-sulfamoylphenylsulfonyl)nicotinamide] | 22
15 | NS(=O)(=O)c1ccccc1S(=O)(=O)NC(=O)c1ccc(-c2cc3ccccc3o2)c(O)c1 [Example 51, 4-(Benzofuran-2-yl)-3-hydroxy-N-(2-sulfamoylphenylsulfonyl)benzamide] | 3.4
16 | Cc1cc(C(=O)NS(=O)(=O)c2ccccc2S(N)(=O)=O)ccc1-c1cc2ccccc2o1 [Example 45, 4-(Benzofuran-2-yl)-3-methyl-N-(2-sulfamoylphenylsulfonyl)benzamide] | 5.5
17 | CC(C)Oc1cc(C(=O)NS(=O)(=O)c2ccccc2S(N)(=O)=O)ccc1C#CC(C)(C)C [Example 128, 4-(3,3-Dimethylbut-1-ynyl)-3-isopropoxy-N-(2-sulfamoylphenylsulfonyl)benzamide] | 45
18 | NS(=O)(=O)c1ccccc1S(=O)(=O)NC(=O)c1ccc(Cl)cc1F [Example 23, 4-Chloro-2-fluoro-N-(2-sulfamoylphenyl)sulfonyl-benzamide] | 1000

Row | SMILES | IC50 [nM]
19 | NS(=O)(=O)c1ccccc1S(=O)(=O)NC(=O)c1ccc(-c2cc3ccccc3o2)c(CO)c1 [Example 103, 4-(Benzofuran-2-yl)-3-(hydroxymethyl)-N-(2-sulfamoylphenylsulfonyl)benzamide] | 15
20 | NS(=O)(=O)c1ccccc1S(=O)(=O)NC(=O)c1ccc2oc(C3(O)CCCC3)cc2c1 [Example 77, 2-(1-Hydroxycyclopentyl)-N-(2-sulfamoylphenylsulfonyl)benzofuran-5-carboxamide] | 720
21 | NS(=O)(=O)c1ccccc1S(=O)(=O)NC(=O)c1ccc(Cl)cc1O [Example 81, 4-Chloro-2-hydroxy-N-(2-sulfamoylphenylsulfonyl)benzamide] | 1000
22 | NS(=O)(=O)c1ccccc1S(=O)(=O)NC(=O)c1ccc(C#CC2CCCC2)cc1O [Example 92, 4-(Cyclopentylethynyl)-2-hydroxy-N-(2-sulfamoylphenylsulfonyl)benzamide] | 19
23 | COc1ccc(-c2cc3cc(C(=O)NS(=O)(=O)c4ccccc4S(N)(=O)=O)ccc3o2)cc1 [Example 75, 2-(4-Methoxyphenyl)-N-(2-sulfamoylphenylsulfonyl)benzofuran-5-carboxamide] | 29
24 | NS(=O)(=O)c1ccccc1S(=O)(=O)NC(=O)c1ccc(COCCC(F)(F)F)cc1 [Example 97, N-(2-Sulfamoylphenylsulfonyl)-4-((3,3,3-trifluoropropoxy)methyl)benzamide] | 5100
25 | Cn1c(C(=O)NS(=O)(=O)c2ccccc2S(N)(=O)=O)cc2ccccc21 [Example 33, 1-Methyl-N-(2-sulfamoylphenyl)sulfonyl-indole-2-carboxamide] | 4600
26 | NS(=O)(=O)c1ccccc1S(=O)(=O)NC(=O)c1ccc(-c2cc3ccccc3o2)cc1F [Example 83, 4-(Benzofuran-2-yl)-2-fluoro-N-(2-sulfamoylphenylsulfonyl)benzamide] | 42
27 | NS(=O)(=O)c1ccccc1S(=O)(=O)NC(=O)c1ccc2oc(C3CCCC3)cc2c1 [Example 78, 2-Cyclopentyl-N-(2-sulfamoylphenylsulfonyl)benzofuran-5-carboxamide] | 5700
28 | CC(C)(C)C#Cc1ncc(C(=O)NS(=O)(=O)c2ccccc2S(N)(=O)=O)cc1Cl [Example 149, 5-Chloro-6-(3,3-dimethylbut-1-ynyl)-N-(2-sulfamoylphenylsulfonyl)nicotinamide] | 64
29 | NS(=O)(=O)c1ccccc1S(=O)(=O)NC(=O)c1ccc(-c2nc3ccccc3o2)cc1 [Example 8, 4-Benzooxazol-2-yl-N-(2-sulfamoylphenyl)sulfonyl-benzamide] | 86
30 | COC(C)(C)C#Cc1ccc(C(=O)NS(=O)(=O)c2ccccc2S(N)(=O)=O)cc1 [Example 112, 4-(3-Methoxy-3-methylbut-1-ynyl)-N-(2-sulfamoylphenylsulfonyl)benzamide] | 1400
31 | Cc1nc(-c2ccccc2)sc1C(=O)NS(=O)(=O)c1ccccc1S(N)(=O)=O [Example 29, 4-Methyl-2-phenyl-N-(2-sulfamoylphenyl)sulfonyl-1,3-thiazole-5-carboxamide] | 290
32 | NS(=O)(=O)c1ccccc1S(=O)(=O)NC(=O)c1ccc(-c2cc3ccccc3o2)c2ccccc12 [Example 62, 4-(Benzofuran-2-yl)-N-(2-sulfamoylphenylsulfonyl)-1-naphthamide] | 20
33 | NS(=O)(=O)c1ccccc1S(=O)(=O)NC(=O)c1ccc(-c2cc3ccccc3o2)cc1C(F)(F)F [Example 150, 4-(Benzofuran-2-yl)-N-(2-sulfamoylphenylsulfonyl)-2-(trifluoromethyl)benzamide] | 360
34 | Cc1nc(-c2cc3ccccc3o2)sc1C(=O)NS(=O)(=O)c1ccccc1S(N)(=O)=O [Example 63, 2-(Benzofuran-2-yl)-4-methyl-N-(2-sulfamoylphenylsulfonyl)thiazole-5-carboxamide] | 96
35 | CC(C)(C)C#Cc1ccc(C(=O)NS(=O)(=O)c2ccccc2S(N)(=O)=O)cc1 [Example 43, 4-(3,3-Dimethylbut-1-ynyl)-N-(2-sulfamoylphenylsulfonyl)benzamide] | 28
36 | COc1cc(C(=O)NS(=O)(=O)c2ccccc2S(N)(=O)=O)cc(OC)c1-c1cc2ccccc2o1 [Example 47, 4-(Benzofuran-2-yl)-3,5-dimethoxy-N-(2-sulfamoylphenylsulfonyl)benzamide] | 140
